The subject of data set [1] is U-CH2 chordoma cell line. The data set is described as follows: Cell viability assay (alamarBlue, 72 h), U-CH2. The format is cell-based, human. The conditions noted are these: n = 4, 72 h. The procedure, abridged: (§1)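 Cells grown in 4:1 IMDM:RPMI with 10% FBS on gel-coated flasks, dosed in quadruplicate 24 h after seeding in 384-well plates.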
Background: Alamar Blue is a resazurin reagent that responds to reducing activity.

In data set [2] the test system is UM-Chor1 patient-derived chordoma cell line. Briefly: Cell viability assay (alamarBlue, 72 h), UM-Chor1. As to conditions: n = 4, 72 h. It is filed as cell-based, human. The gist of the method:
(§2)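 Patient-derived chordoma lines and WS1 fibroblasts seeded in 384-well plates, dosed in quadruplicate 24 h after plating.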

In data set [3] the test system is U-CH1 chordoma cell line. Briefly: Cell viability assay (alamarBlue, 72 h), U-CH1. The format is cell-based, human. The conditions noted are these: n = 4, 72 h. The gist of the method:
as §1

The test system of data set [4] is HL60 cells. The data set is described as follows: AsedaSciences SYSTEMETRIC Cell Health Screen (flow cytometry toxicity profiling). As to conditions: HL60, 4 h, 5 nM–100 µM; for CC: Cell Cycle score / CM: Cell morphology score / CMI: Cell membrane integrity score / GSH: Glutathione score / MMP: Mitochondrial membrane depolarization score / NMI1: Nuclear membrane integrity 1 score / NMI2: Nuclear membrane integrity 2 score / ROS: Reactive superoxide species score: probability 0–1, n = 2; for CHI: Cell Health Index: probability (0–1) of high-risk class, n = 2. The gist of the method: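 HL60 cells (100,000 per well) exposed 4 h at 37 °C, 5% CO2 to 10-step 3× dilutions (5 nM–100 µM), in duplicate. Cells then stained with mitochondrial and cell-stress reporter dyes and read by ungated flow cytometry over twelve parameters. Cell Health Index and eight endpoint scores come from an ML classifier trained on 300 high/low-risk compounds.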

Data set [5] has as its system WS1 human fibroblast cell line. The data set is described as follows: Cell viability assay, WS1 toxicity control. As to conditions: n = 4, nonspecific toxicity control. It is filed as cell-based. The procedure, abridged:
as §2

For data set [6], the target named is MAP4K5 (Homo sapiens, UniProt Q9Y4K4). Briefly: 33PanQinase activity assay. The format is biochemical. The conditions noted are these: for Residual activity: singlicate. The source says: (§3) Table S4. Profiling of two compounds at two concentrations against 320 wild-type protein kinases; singlicate measurement; Residual activities (% of control).
The test system of data set [7] is U-CH12 patient-derived chordoma cell line. The data set is described as follows: Cell viability assay (alamarBlue, 72 h), U-CH12. The format is cell-based, human. As to conditions: n = 4, 72 h. The gist of the method:
as §2

Data set [8] concerns the target VEGFR2 (Homo sapiens, UniProt P35968). The data set is described as follows: 33PanQinase activity assay. The conditions noted are these: 10 μM. It is filed as biochemical.
Source text: as §3

Broadly, the IC50 is the concentration at which inhibition is half-maximal. A higher IC50 goes with weaker potency.

Each structure is given as a SMILES string.

Chain of MAP4K5 (Q9Y4K4 whole entry): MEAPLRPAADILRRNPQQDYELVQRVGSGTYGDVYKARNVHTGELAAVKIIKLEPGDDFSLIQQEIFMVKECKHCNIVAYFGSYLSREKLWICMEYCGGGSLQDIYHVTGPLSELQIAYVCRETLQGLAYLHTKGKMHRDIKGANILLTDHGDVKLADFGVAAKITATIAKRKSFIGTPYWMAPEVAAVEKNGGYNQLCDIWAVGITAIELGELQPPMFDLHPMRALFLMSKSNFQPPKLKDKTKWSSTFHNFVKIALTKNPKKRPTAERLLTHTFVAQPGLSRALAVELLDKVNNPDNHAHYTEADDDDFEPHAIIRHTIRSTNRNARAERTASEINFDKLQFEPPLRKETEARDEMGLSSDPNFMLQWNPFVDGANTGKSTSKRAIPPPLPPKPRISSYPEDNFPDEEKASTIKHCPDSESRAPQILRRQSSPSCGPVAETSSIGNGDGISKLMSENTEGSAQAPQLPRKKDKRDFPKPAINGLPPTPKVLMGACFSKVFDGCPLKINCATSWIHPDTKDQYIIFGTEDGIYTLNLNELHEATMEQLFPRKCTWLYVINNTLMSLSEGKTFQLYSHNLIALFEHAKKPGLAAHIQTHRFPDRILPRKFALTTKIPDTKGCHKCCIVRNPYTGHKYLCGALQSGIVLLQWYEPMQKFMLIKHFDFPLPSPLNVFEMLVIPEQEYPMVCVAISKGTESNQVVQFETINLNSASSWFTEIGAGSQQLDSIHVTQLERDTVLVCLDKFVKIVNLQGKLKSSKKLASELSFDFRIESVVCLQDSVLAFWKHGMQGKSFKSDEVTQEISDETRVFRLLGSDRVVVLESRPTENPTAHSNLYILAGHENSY
Chain of VEGFR2 (P35968 20-1356): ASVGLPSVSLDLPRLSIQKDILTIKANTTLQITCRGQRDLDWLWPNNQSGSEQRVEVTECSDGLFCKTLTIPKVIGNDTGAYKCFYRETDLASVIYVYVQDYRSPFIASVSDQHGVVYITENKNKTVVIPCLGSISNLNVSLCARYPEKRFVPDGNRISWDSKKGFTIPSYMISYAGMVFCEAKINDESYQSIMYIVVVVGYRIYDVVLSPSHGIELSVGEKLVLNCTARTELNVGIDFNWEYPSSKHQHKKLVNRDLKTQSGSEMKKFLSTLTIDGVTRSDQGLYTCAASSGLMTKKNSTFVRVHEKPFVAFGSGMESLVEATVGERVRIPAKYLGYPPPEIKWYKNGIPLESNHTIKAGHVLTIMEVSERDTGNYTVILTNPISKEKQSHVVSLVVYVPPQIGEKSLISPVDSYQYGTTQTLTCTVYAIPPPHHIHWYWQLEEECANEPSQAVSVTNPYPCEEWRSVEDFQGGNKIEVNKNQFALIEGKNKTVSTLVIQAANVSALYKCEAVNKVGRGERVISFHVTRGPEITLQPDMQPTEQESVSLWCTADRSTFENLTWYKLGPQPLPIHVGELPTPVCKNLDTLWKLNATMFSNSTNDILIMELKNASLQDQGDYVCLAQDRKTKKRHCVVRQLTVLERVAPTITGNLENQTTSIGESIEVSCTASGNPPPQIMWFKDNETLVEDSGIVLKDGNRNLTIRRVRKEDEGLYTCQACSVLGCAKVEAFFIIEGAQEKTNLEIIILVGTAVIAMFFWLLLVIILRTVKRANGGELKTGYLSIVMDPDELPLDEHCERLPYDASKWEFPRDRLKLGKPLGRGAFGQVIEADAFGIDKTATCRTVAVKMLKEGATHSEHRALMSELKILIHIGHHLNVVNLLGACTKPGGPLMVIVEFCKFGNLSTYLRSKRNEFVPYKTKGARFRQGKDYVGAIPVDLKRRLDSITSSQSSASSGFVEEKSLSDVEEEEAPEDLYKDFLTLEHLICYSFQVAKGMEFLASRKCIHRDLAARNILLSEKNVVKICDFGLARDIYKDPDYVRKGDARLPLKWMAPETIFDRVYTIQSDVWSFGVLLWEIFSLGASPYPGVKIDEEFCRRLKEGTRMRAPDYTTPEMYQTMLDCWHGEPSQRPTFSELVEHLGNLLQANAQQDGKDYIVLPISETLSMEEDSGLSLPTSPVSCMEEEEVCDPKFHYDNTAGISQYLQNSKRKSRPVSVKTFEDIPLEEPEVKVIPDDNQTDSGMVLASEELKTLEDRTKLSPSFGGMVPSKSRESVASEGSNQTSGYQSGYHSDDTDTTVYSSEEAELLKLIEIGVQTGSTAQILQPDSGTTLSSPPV

In data set [1], `C#Cc1cc(Nc2ncnc3cc(I)ccc23)ccc1Cl` [Compound 41] displayed an IC50 of 16 µM. The same compound gave an IC50 in data set [2] of 25 µM. Moreover, the IC50 in data set [3] turned out to be 9.1 µM. Also, in data set [4], the “CC: Cell Cycle score” value is listed as 0.91, the “CM: Cell morphology score” value is recorded as 1.00, the “CMI: Cell membrane integrity score” value came to 1.00 and the “GSH: Glutathione score” value was determined as 0.99. In data set [4], the “MMP: Mitochondrial membrane depolarization score” value is listed as 1.00, the “NMI1: Nuclear membrane integrity 1 score” value turned out to be 1.00, the “NMI2: Nuclear membrane integrity 2 score” value was 1.00 and the “ROS: Reactive superoxide species score” value is recorded as 0.99. In addition, the “CHI: Cell Health Index” value in data set [4] was 0.88. In data set [5], this compound showed an IC50 of 36 µM. Besides, the Residual activity in data set [6] (MAP4K5, 1.0E-06 M) is reported as 70 % of control. For the same compound, the Residual activity in data set [6] (MAP4K5, 1.0E-07 M) is on record as 101 % of control. The compound further yielded an IC50 in data set [7] of 0.96 µM.

In the case of `C#Cc1cc(Nc2ncnc3cc(OC)c(OC)cc23)ccc1Cl` [Compound 45], the IC50 in data set [1] was determined as 35 µM. This compound also had an IC50 in data set [2] of 60 µM. Also, the IC50 in data set [3] is above 100 µM. Further, in data set [4], the “CC: Cell Cycle score” value amounted to 0.10, the “CM: Cell morphology score” value is 1.00, the “CMI: Cell membrane integrity score” value is 0.51 and the “GSH: Glutathione score” value is on record as 0.079. Moreover, in data set [4], the “MMP: Mitochondrial membrane depolarization score” value was found to be 0.48, the “NMI1: Nuclear membrane integrity 1 score” value was 0.60, the “NMI2: Nuclear membrane integrity 2 score” value is 0.40 and the “ROS: Reactive superoxide species score” value was determined as 0.77. Also, the “CHI: Cell Health Index” value in data set [4] came to 0.60. Moreover, the IC50 in data set [5] is above 100 µM. Besides, the VEGFR2 inhibition in data set [8] is given as above 50%. This compound had an MAP4K5 inhibition in data set [6] (10 μM) above 50%. In data set [6] (MAP4K5, 1.0E-06 M), the Residual activity is 22 % of control. The Residual activity in data set [6] (MAP4K5, 1.0E-07 M) is 108 % of control. Further, half-maximal inhibition in data set [7] (IC50) was put at 3 µM.

(Values after article PMC9329436, “Optimization of the 4-anilinoquin(az)oline scaffold as epidermal growth factor receptor (EGFR) inhibitors for chordoma utilizing a toxicology profiling assay platform” (Scientific Reports, 2022).)
